Assays:
HSD3B2 = HSD3B2 expression by qPCR in NCI-H295R; assay type: cell-based; settings: doses under the IC-50
Source text: FIG. 7. EZH2i reverses zF differentiation. […] Representative experiment shown, n>3. C.
(§1) FIG. 21. EZH2i and CBPi redundantly disrupt the NCI-H295R transcriptome. […] Right, gene expression changes induced by EZH2i and CBPi are strongly correlated. […] C.

NCI-H295R = experiment: RNA-seq transcriptome of NCI-H295R after drug treatment; assay type: cell-based; settings: for differentially expressed genes overlapping between EZH2i and CBPi: 96-hour IC-50 administration
Protocol: FIG. 6. Forskolin induces faithful zF differentiation and steroidogenesis in NCI-H295R. […] The induction of immediate early response programs is consistent with known mechanisms of action of PKA.
as §1
To evaluate if EZH2i disrupted zF differentiation, the NCI-H295R was treated with the zF differentiation agent forskolin and the transcriptome was profiled by RNA-seq. Despite that CIMP-high as a class is at the zF differentiation maximum across human ACC (FIG. 5), the presence of mutant CTNNB1 in this cell line and high levels of nuclear β-catenin are likely to enable faithful responsiveness to forskolin and refractory response to Wnt/β-catenin stimulants, analogously to the Y1 cell line.
The NCI-H295R response to CBPi was evaluated by RNA-seq and compared to the NCI-H295R response to EZH2i. […] Similarly to EZH2i, CBPi induces downregulation of all core modules that define CIMP-high ACC (FIG. 22). Taken together, the results point to adrenocortical differentiation as a targetable therapeutic vulnerability selected for in CIMP-high ACC.

NCI-H295R, ATC7L, and Y1 = experiment: Viability of ACC cell lines with CBPi alone or combined with EZH2i; assay type: cell-based; settings: increasing doses of CBPi combined with EZH2i at the IC-50 dose for each cell line; all ACC cell lines
Protocol: FIG. 20. EZH2i and CBPi are synergistic in ACC cell lines. NCI-H295R, ATC7L, and Y1 were treated with increasing doses of CBPi (PRI-724), alone or in combination with EZH2i at the IC-50 dose for each cell line (EZH2i viability curves for ATC7L and Y1 not shown).
ACC cell lines were treated with a specific and irreversible inhibitor of the H3K27 acetyltransferase CBP (PRI-724 (Kahn, 2014)). CBP regulates H3K27ac deposition genome-wide including at enhancers, and CBP-dependent H3K27ac deposition is required for enhancer activity (Merika et al., 1998; Raisner et al., 2018). Cell lines received the CBP inhibitor (CBPi) either alone or combination with EZH2i at the determined IC-50 dose for that cell line.

[1] = test system: subcutaneous, immunodeficient xenograft model of adrenal cancer; experiment: Subcutaneous xenograft model of adrenal cancer; assay type: in vivo, mouse; settings: 200 mg/kg PO daily, compared to vehicle
Protocol: To test if disruption of SF1/β-catenin complexes in vivo can cause dedifferentiation (Example 1 and 2) and disrupt tumor growth, the impact of EZH2 inhibition on a xenograft model derived from the Borges et al. Oncogene 2020 genetically engineered mouse model detailed in FIG. 25 was assayed.

Structure (SMILES)	HSD3B2 expression (HSD3B2)	steroidogenesis (RNA-seq) (NCI-H295R)	differentially expressed genes overlapping between EZH2i and CBPi (NCI-H295R)	loss of viability in combination (NCI-H295R, ATC7L, and Y1)	tumor growth [1]	expression of SF1 ([1]; immunohistochemistry)
C[C@H]1[C@H]2N(C(=O)CN(C)N2C(=O)NCc2ccccc2)[C@@H](Cc2ccc(OP(=O)(O)O)cc2)C(=O)N1Cc1cccc2cccnc12 [PRI-724]	dose-dependent downregulation	potent downregulation of steroidogenesis	~70%	synergistic	–	–
CCN(c1cc(-c2ccc(CN3CCOCC3)cc2)cc(C(=O)NCc2c(C)cc(C)[nH]c2=O)c1C)C1CCOCC1 [EPZ-6438]	–	–	~70%	–	decreases tumor growth	decreasing expression of SF1

From patent publication US20240082272A1, “COMPOSITIONS AND METHODS FOR TREATING WNT-DRIVEN CANCER” (The Regents of the University of Michigan, priority 2020, published 2024)
